The values that follow come from ChEMBL document CHEMBL1146832, “N-Benzylindole-2-carboxylic acids: potent functional antagonists of the CCR2b chemokine receptor” (Bioorg Med Chem Lett, 2004).

This test deals with C-C chemokine receptor type 2 (Homo sapiens, UniProt P41597). Put plainly: Inhibition of human C-C chemokine receptor type 2.
Chain of C-C chemokine receptor type 2 (P41597 whole entry): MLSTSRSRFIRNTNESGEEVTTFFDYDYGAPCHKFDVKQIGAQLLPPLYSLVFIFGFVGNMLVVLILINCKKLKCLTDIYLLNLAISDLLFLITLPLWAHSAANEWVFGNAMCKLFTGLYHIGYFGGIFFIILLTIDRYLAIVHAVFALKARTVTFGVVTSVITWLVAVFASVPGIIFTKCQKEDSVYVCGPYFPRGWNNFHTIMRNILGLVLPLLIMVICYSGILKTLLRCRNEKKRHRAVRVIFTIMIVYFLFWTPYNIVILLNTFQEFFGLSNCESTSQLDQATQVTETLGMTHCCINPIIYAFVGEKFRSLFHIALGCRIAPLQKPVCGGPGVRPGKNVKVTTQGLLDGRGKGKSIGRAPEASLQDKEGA
The term IC50 denotes the concentration that gives 50% inhibition. With `O=C(O)c1cc2ccccc2n1S(=O)(=O)c1ccc(Cl)c(Cl)c1`, the midpoint of inhibition, the IC50, lay at 1020 nM. With `COc1ccc2cc(C(=O)O)n(Cc3ccc(Cl)c(Cl)c3)c2c1` the figure was 2300 nM; with `COc1cccc2c1cc(C(=O)O)n2Cc1ccc(Cl)c(Cl)c1`, 280 nM. With `O=C(O)c1cc2ccccc2n1Cc1cccc(Cl)c1` the figure was 1130 nM.

Compound `O=C(O)c1cc2c(F)cccc2n1Cc1ccc(Cl)c(Cl)c1` showed an IC50 of 99 nM. With `Nc1ccc2cc(C(=O)O)n(Cc3ccc(Cl)c(Cl)c3)c2c1` the figure was 12600 nM; with `O=C(NS(=O)(=O)c1ccccc1)c1cc2ccccc2n1Cc1ccc(Cl)c(Cl)c1`, 4780 nM; with `Cc1ccc(Cn2c(C(=O)O)cc3cc(Cl)ccc32)cc1Cl`, 120 nM. With `O=C(O)c1cc2cccc(Cl)c2n1Cc1ccc(Cl)c(Cl)c1` the figure was 340 nM; with `Nc1ccc2c(c1)cc(C(=O)O)n2Cc1ccc(Cl)c(Cl)c1`, 500 nM; with `O=C(O)c1cc2ccc(Cl)cc2n1Cc1ccc(Cl)c(Cl)c1`, 340 nM. `O=C(O)c1cc2c(C(F)(F)F)cccc2n1Cc1ccc(Cl)c(Cl)c1` yielded an IC50 of 1190 nM. With `O=C(O)c1cc2cc([N+](=O)[O-])ccc2n1Cc1ccc(Cl)c(Cl)c1` the figure was 390 nM. With `O=C(O)c1cc2c([N+](=O)[O-])cccc2n1Cc1ccc(Cl)c(Cl)c1` the figure was 1310 nM; with `O=C(NS(=O)(=O)C(F)(F)F)c1cc2cc(F)ccc2n1Cc1ccc(Cl)c(Cl)c1`, 370 nM. With `O=C(O)c1c(Cl)c2ccccc2n1Cc1ccc(Cl)c(Cl)c1` the figure was 260 nM. In turn, `Clc1ccc(Cn2c(-c3nn[nH]n3)cc3ccccc32)cc1Cl` registered an IC50 of 1030 nM. Turning to `NC(=O)c1cc2ccccc2n1Cc1ccc(Cl)c(Cl)c1`, inhibition was half-maximal at 12700 nM (IC50). With `CS(=O)(=O)c1ccc2c(c1)cc(C(=O)O)n2Cc1ccc(Cl)c(Cl)c1` the figure was 2200 nM; with `O=C(O)c1cc2cccc([N+](=O)[O-])c2n1Cc1ccc(Cl)c(Cl)c1`, 10800 nM; with `COc1cccc2cc(C(=O)O)n(Cc3ccc(Cl)c(Cl)c3)c12`, 1210 nM. With `O=C(O)c1cc2ccccc2n1Cc1ccc(Cl)c(Cl)c1` the figure was 230 nM. On to `O=C(O)c1cc2ccccc2n1Cc1ccc(-c2ccccc2)cc1`, for which the IC50 is > 50000 nM. With `O=C(O)c1cc2ccccc2n1Cc1ccc(Cl)cc1` the figure was 1360 nM; with `N#Cc1cccc(Cn2c(C(=O)O)cc3cc(Cl)ccc32)c1`, 2000 nM.

`O=C(O)c1c(C(=O)O)n(Cc2ccc(Cl)c(Cl)c2)c2ccccc12` showed an IC50 of 96 nM. In turn, `CS(=O)(=O)c1cccc2c1cc(C(=O)O)n2Cc1ccc(Cl)c(Cl)c1` yielded an IC50 of 3880 nM. With `COc1ccc(Cn2c(C(=O)O)cc3cc(Cl)ccc32)cc1` the figure was 5770 nM; with `O=C(O)c1cc2cc(Cl)ccc2n1Cc1cccc([N+](=O)[O-])c1`, 650 nM.

In turn, `O=C(O)c1cc2cccc(C(F)(F)F)c2n1Cc1ccc(Cl)c(Cl)c1` had an IC50 of 1270 nM. With `O=C(O)c1cc2cc(Cl)ccc2n1Cc1ccc(Cl)c(Cl)c1` the figure was 110 nM; with `O=C(O)c1cc2ccc(F)cc2n1Cc1ccc(Cl)c(Cl)c1`, 90 nM; with `O=C(O)c1cc2ccc([N+](=O)[O-])cc2n1Cc1ccc(Cl)c(Cl)c1`, 1640 nM. With `Cc1ccc(Cn2c(C(=O)O)cc3cc(Cl)ccc32)cc1C` the figure was 220 nM. With `O=C(O)c1cc2ccc(C(F)(F)F)cc2n1Cc1ccc(Cl)c(Cl)c1` the figure was 1050 nM. As to `O=C(O)c1cc2cc(Cl)ccc2n1Cc1ccc(OCc2ccccc2)cc1`, the IC50 was > 50000 nM. With `O=C(O)c1cccc(Cn2c(C(=O)O)cc3cc(Cl)ccc32)c1` the figure was 27000 nM.

On to `O=C(O)c1cc2ccccc2n1Cc1ccccc1`, for which half-maximal inhibition (IC50) required 1700 nM. With `COc1c(C(=O)O)n(Cc2ccc(Cl)c(Cl)c2)c2ccccc12` the figure was 770 nM; with `Nc1cccc2c1cc(C(=O)O)n2Cc1ccc(Cl)c(Cl)c1`, 230 nM; with `O=C(O)c1cc2c(-c3ccccc3)cccc2n1Cc1ccc(Cl)c(Cl)c1`, 640 nM. With `O=C(O)c1cc2cc(-c3ccccc3)ccc2n1Cc1ccc(Cl)c(Cl)c1` the figure was 8600 nM; with `CS(=O)(=O)NC(=O)c1cc2ccccc2n1Cc1ccc(Cl)c(Cl)c1`, 6090 nM. With `O=C(O)c1cc2ccccc2n1C(=O)c1ccc(Cl)c(Cl)c1` the figure was > 50000 nM; with `O=C(O)c1cc2c(Cl)cccc2n1Cc1ccc(Cl)c(Cl)c1`, 150 nM; with `COc1cccc(Cn2c(C(=O)O)cc3cc(Cl)ccc32)c1`, 3010 nM. With `N#Cc1c(C(=O)O)n(Cc2ccc(Cl)c(Cl)c2)c2ccccc12`, the IC50 stood at 300 nM. With `O=C(O)c1cc2cc(Cl)ccc2n1Cc1ccccc1Cl` the figure was 1480 nM; with `O=C(O)c1cc2cc(C(F)(F)F)ccc2n1Cc1ccc(Cl)c(Cl)c1`, 170 nM. `O=C(O)c1cc2ccc(-c3ccccc3)cc2n1Cc1ccc(Cl)c(Cl)c1`: the IC50 was found to be 12300 nM. `COc1ccc2c(c1)cc(C(=O)O)n2Cc1ccc(Cl)c(Cl)c1` came in with an IC50 of 410 nM.

`O=C(O)c1cc2cc(F)ccc2n1Cc1ccc(Cl)c(Cl)c1` gave an IC50 of 56 nM. With `O=C(O)c1cc2cccc(F)c2n1Cc1ccc(Cl)c(Cl)c1` the figure was 125 nM.
